Data from patent US9340577B2, “HLA binding motifs and peptides and their uses” (priority 1992, dated 2016).
Where two headings read alike, the source gives them in different places. No end group written: not given here.

Legend:
DR7 (DRB1*0701) = DR7 (DRB1*0701) (Homo sapiens, UniProt P01903+P01911, A100R/A102G/A103Q/D57E/D86V/E43K/F76Y/K127E/L162R/M171V/P40G/Q125H/Q99D/R33Q/R42Y/R54Q/S133A/S66F/T210M/V115G/Y107V/Y59L/Y89S); test: biochemical; type: binding
DR4w4 (DRB1*0401) = DR4w4 (DRB1*0401) (Homo sapiens, UniProt P01903+P01911, A100K/A169T/F76Y/I96L/K127E/L162R/M171V/N62H/P40V/Q125Y/R42H/S133A/S149N/S66Y/V115G/V209L/W38E); test: biochemical; type: binding
DRB1*1501 = DRB1*1501 (Homo sapiens, UniProt P01903+P01911); test: biochemical; type: binding
DRB5*0101 = DRB5*0101 (Homo sapiens, UniProt P01903+Q30154); test: biochemical
DRB1*1302 = DRB1*1302 (Homo sapiens, UniProt P01903+P01911, A100E/A169T/K41T/L162R/M171V/P40S/Q125H/Q178H/Q39Y/Q99D/R42S/S66N/T262R/V115G/W38E/Y61H); test: biochemical; type: binding
DRB1*1101 = DRB1*1101 (Homo sapiens, UniProt P01903+P01911, A100R/A169T/A87E/I96F/K41T/L162R/M171V/P40S/Q125H/Q178H/Q39Y/Q99D/R42S/S66Y/T262R/V115G/W38E); test: biochemical
DRB1*0802 = DRB1*0802 (Homo sapiens, UniProt P01903+P01911, A100R/A103L/A169T/F76Y/H45Y/I96F/K41T/L162R/M171V/P40S/Q125H/Q178H/Q39Y/Q99D/R218S/R42G/S66Y/V115G/W38E); test: biochemical; type: binding
A2.1 HLA molecules = A2.1 HLA molecules (Homo sapiens, UniProt P04439, D140Y/D185E/D98H/E176V/E277Q/G131W/G231S/I119V/I121R/I166T/I218V/L300P/L318F/N151K/N90K/P208A/P217A/Q86G/Q94H/R138H/R169H/T345S); type: binding; design: A*0201 / A2.1 Binding / A2 Bind. / A2 / A2.1 (binding capacity): scale not given here
HLA-A*0201 (HLA-A2.1) = HLA-A*0201 (HLA-A2.1) (Homo sapiens, UniProt P04439, D140Y/D185E/D98H/E176V/E277Q/G131W/G231S/I119V/I121R/I166T/I218V/L300P/L318F/N151K/N90K/P208A/P217A/Q86G/Q94H/R138H/R169H/T345S); test: biochemical; type: binding
HLA-A3.2 (A*0301) = HLA-A3.2 (A*0301) (Homo sapiens, UniProt P04439); test: biochemical; type: binding; settings: Table 164, MAGE peptides; binding value to HLA-A3.2, no unit given
HLA-A11 (A*1101) = HLA-A11 (A*1101) (Homo sapiens, UniProt P04439, A114D/D185E/E176A/F33Y/L180Q/S129P/T187R); test: biochemical; type: binding; design: A11: unit not given here
DRB1*0901 = DRB1*0901 (Homo sapiens, UniProt P01903+P01911, A100R/A103E/D57H/D86V/F55Y/F60I/F76Y/I96F/K127E/L162R/M171V/P40D/Q125H/Q99R/R33Q/R42F/S133A/S66N/T210M/V115G/W38K/Y107V/Y59G/Y89S); test: biochemical; type: binding
DR1 (DRB1*0101) = DR1 (DRB1*0101) (Homo sapiens, UniProt P01903+P01911, A100R/D57E/F55L/F60I/F76Y/I96L/L162R/M171V/P40L/Q125E/R42F/V115G/Y59C); test: biochemical; type: binding

Sequence of DRB1*1101 (P01903 26-254 limits assumed, other chains not shown): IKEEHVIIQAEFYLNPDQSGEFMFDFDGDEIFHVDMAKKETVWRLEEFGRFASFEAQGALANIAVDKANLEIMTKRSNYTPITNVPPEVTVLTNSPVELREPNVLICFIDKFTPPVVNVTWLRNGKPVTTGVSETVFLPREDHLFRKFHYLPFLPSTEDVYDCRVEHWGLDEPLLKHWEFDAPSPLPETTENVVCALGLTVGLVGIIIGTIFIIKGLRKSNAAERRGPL
Sequence of DRB1*1302 (P01903 26-254 limits assumed, other chains not shown): as above

702.17 (AYAAAKA; also: non-natural residues (20)) [Peptide 702.17]
IC50 (DR7 (DRB1*0701); read-out: DRB1*0701): 8.33 µM
IC50 (DR4w4 (DRB1*0401); read-out: DRB1*0401): 0.25 µM

730.15 (AAKAAAAAAAAA; also: non-natural residue (10)) [Peptide 730.15]
IC50 (DR4w4 (DRB1*0401); read-out: DRB1*0401): > 0.889 µM

787.35 (AAIGFFFFKKGIA; also: non-natural residue (43)) [Peptide 787.35]
IC50 (DR4w4 (DRB1*0401); read-out: DRB1*0401): 0.258 µM

787.39 (AAIGGIFIFKKDA; also: non-natural residue (43)) [Peptide 787.39]
IC50 (DR4w4 (DRB1*0401); read-out: DRB1*0401): 0.8 µM

839.03 (AAAATKAAAA; also: non-natural residues (14), (35)) [Peptide 839.03]
IC50 (DR4w4 (DRB1*0401); read-out: DRB1*0401): > 0.5 µM

CC[C@H](C)[C@H](NC(=O)CNC(=O)[C@H](CCCNC(=N)N)NC(=O)[C@H](CCCNC(=N)N)NC(=O)[C@H](Cc1ccc(O)cc1)NC(=O)[C@H](C)NC(=O)[C@H](Cc1ccc(O)cc1)NC(=O)[C@@H](N)CCC(=O)O)C(=O)N[C@@H](C)C(=O)N[C@@H](CCC(=O)O)C(=O)N[C@@H](C)C(=O)N[C@H](C(=O)NCC(=O)N[C@@H](CC(C)C)C(=O)N1CCC[C@H]1C(=O)O)C(C)C [Peptide 68.0100]
IC50 (DRB1*1501): > 20 µM

CC[C@H](C)[C@H](NC(=O)[C@H](CCC(N)=O)NC(=O)[C@@H](NC(=O)[C@H](CO)NC(=O)[C@H](CC(=O)O)NC(=O)[C@@H]1CCCN1C(=O)[C@@H](NC(=O)[C@H](C)NC(=O)[C@@H](NC(=O)[C@@H](NC(=O)[C@H](CC(N)=O)NC(=O)[C@H](CC(C)C)NC(=O)[C@@H](N)Cc1ccccc1)[C@@H](C)O)C(C)C)[C@@H](C)CC)C(C)C)C(=O)N[C@@H](CC(C)C)C(=O)N[C@H](C(=O)O)C(C)C [Peptide 1601.20]
IC50 (DRB5*0101; Binding affinity DRB5 *0101): > 20 µM
IC50 (DRB1*1302): 0.09 µM
IC50 (DRB1*1101; Binding affinity DRB1 *1101): > 20 µM
IC50 (DRB1*0802): > 20 µM

CC[C@H](C)[C@H](NC(=O)[C@H](CC(N)=O)NC(=O)[C@H](C)NC(=O)[C@H](CC(=O)O)NC(=O)CNC(=O)[C@H](CCCCN)NC(=O)[C@H](CC(C)C)NC(=O)[C@H](Cc1c[nH]cn1)NC(=O)[C@@H](NC(=O)[C@@H](NC(=O)[C@@H]1CCCN1C(=O)[C@@H](NC(=O)[C@@H](N)[C@@H](C)O)[C@@H](C)O)[C@@H](C)CC)[C@@H](C)CC)C(=O)N[C@@H](CC(C)C)C(=O)N[C@@H](CCCCN)C(=O)O [Peptide 1601.25]
IC50 (DRB5*0101; Binding affinity DRB5 *0101): > 20 µM

AKSTWYGKPTGAGPKDNGGA [Peptide 620.03]
IC50 (DRB5*0101; DRB5*0101): 10 µM

ALAETSYVKVL
A2 Bind. (A2.1 HLA molecules): 0.0120
binding to HLA-A2.1 (column 3; no allele head shown for these rows) (HLA-A*0201 (HLA-A2.1)): 0.012

ALGLVCVQA
A2 Bind. (A2.1 HLA molecules): 0.0150
A2.1 relative binding (ratio of binding of test peptide relative to standard peptide) (A2.1 HLA molecules): 0.015
A3.2 (HLA-A3.2 (A*0301)): <0.0002
A2.1 (HLA-A*0201 (HLA-A2.1)): 0.015
A11 (HLA-A11 (A*1101)): <0.0002

AMGLVCVQV
A2 Bind. (A2.1 HLA molecules): 0.0120
binding to HLA-A2.1 (column 3; no allele head shown for these rows) (HLA-A*0201 (HLA-A2.1)): 0.012

Ac-AAAKAAAAAAFAA [Peptide 730.09]
IC50 (DR4w4 (DRB1*0401)): 0.421 µM

Ac-AAAKAAAAAAYAA [Peptide 702.08]
IC50 (DR4w4 (DRB1*0401)): 0.348 µM

Ac-NPDAENWNSQFEILEDAA [Peptide 725.01]
IC50 (DRB1*0802): > 25 µM

Ac-NPTKHKWEAAHVAEQLAA [Peptide 724.01]
IC50 (DRB1*0802): 25 µM

CYSLYGTTLEQQYNK [Peptide 85.0004]
IC50 (DRB1*0901): 26 µM

FVNQHLCGSHLVEAL [Peptide 9000.0047]
IC50 (DR7 (DRB1*0701)): 6.79 µM

GKSYFGMSLIHFLKG [Peptide 89.0146]
IC50 (DR1 (DRB1*0101)): > 20 µM
IC50 (DRB5*0101; Binding affinity DRB5 *0101): > 20 µM
IC50 (DRB1*0901): > 20 µM
IC50 (DRB1*1302): > 20 µM
IC50 (DRB1*1501): > 20 µM
IC50 (DR7 (DRB1*0701)): > 20 µM
IC50 (DRB1*1101; Binding affinity DRB1 *1101): > 20 µM
IC50 (DRB1*0802): > 20 µM
IC50 (DR4w4 (DRB1*0401)): 0.561 µM

GLSYDGLLG
A2.1 relative binding (ratio of binding of test peptide relative to standard peptide) (A2.1 HLA molecules): 0
binding to HLA-A2.1 (column 3; no allele head shown for these rows) (HLA-A*0201 (HLA-A2.1)): 0

GTLEEVPTA
A2 Bind. (A2.1 HLA molecules): 0.0130
binding to HLA-A2.1 (column 3; no allele head shown for these rows) (HLA-A*0201 (HLA-A2.1)): 0.013

GVILYSDPADYFAPG [Peptide 68.0170]
IC50 (DRB1*1101; Binding affinity DRB1 *1101): > 20 µM
IC50 (DRB1*0802): > 20 µM

HLYIFATCLGL
A2 Bind. (A2.1 HLA molecules): 0.0410
binding to HLA-A2.1 (column 3; no allele head shown for these rows) (HLA-A*0201 (HLA-A2.1)): 0.041

IIHLKGDKNSLKCLR [90,0218]
IC50 (DRB1*0901): > 20 µM
IC50 (DR7 (DRB1*0701)): > 20 µM
IC50 (DRB1*1101; […]): > 20 µM
IC50 (DRB1*0802): 5.03 µM

IMPKAGLLIIV
A2 Bind. (A2.1 HLA molecules): 0.0130
binding to HLA-A2.1 (column 3; no allele head shown for these rows) (HLA-A*0201 (HLA-A2.1)): 0.013

KMADLVGFLV
A2 Bind. (A2.1 HLA molecules): 1.5000
binding to HLA-A2.1 (column 3; no allele head shown for these rows) (HLA-A*0201 (HLA-A2.1)): 1.5

KMVELVHFLLL
A2 Bind. (A2.1 HLA molecules): 0.6700
binding to HLA-A2.1 (column 3; no allele head shown for these rows) (HLA-A*0201 (HLA-A2.1)): 0.67
